In patent publication US11260034B2, “Method of using niclosamide derivatives” (CHANG GUNG UNIVERSITY, priority 2016, dated 2022):

Legend:
[1] = tested on: washed platelet samples, platelet aggregation induced by collagen; test: platelet aggregation test, washed platelets stimulated with collagen (light transmission); type: cell-based; conditions: for collagen-induced platelet aggregation: FIG. 8; for aggregation percentage: FIG. 9
Method: FIG. 1 is a diagram illustrating a platelet aggregation test, in accordance with at least one embodiment of the present invention. In FIG. 1, N and C represent the administrations of niclosamide in 0.25% dimethyl sulfoxide (DMSO) or collagen respectively. The platelet aggregation test was performed in accordance with the standard procedure. Four washed platelet samples from the same source were treated with the same volume of niclosamide (0.5 μM, 1 μM, and 2 μM) or a solvent control respectively. Five minutes later, each washed platelet sample was treated with collagen (2 μM) to induce platelet aggregation. FIG. 1 illustrates the light transmission rates of each result. In FIG. 1, the X-axis represents time and the Y-axis represents the transmittance. Note that in FIG. 1, the four platelet aggregation tests performed simultaneously are presented sequentially on the X-axis to render the data readable for one skilled in the art. […] The platelet aggregation test was performed in accordance with the standard procedure. Four washed platelet samples from the same source were treated with the same volume of niclosamide (0.5 μM, 1 μM, and 2 μM) or a solvent control respectively. Five minutes, each washed platelet sample was treated with 2 μM collagen to induce platelet aggregation. The results were detected twenty minutes after the administration of collagen. In FIG. 2, the Y-axis represents the percentage of platelet aggregation, in which the transmittance of platelet-poor plasma is set as 100%. FIG. 8 is a diagram illustrating a platelet aggregation test, in accordance with at least one embodiment of the present invention. Four washed platelet samples from the same source were treated with different treatments at the same time. In FIG. 8, “D” represents the administration of 0.25% DMSO; “C” represents the administration of collagen; “N” represents the administration of niclosamide in 0.25% DMSO; and “S” represents the administration of a STAT-3 inhibitor, STA-21. […] Four washed platelet samples from the same source were treated with different treatments at the same time. In FIG. 9, “D” represents 0.25% DMSO; “STA-21” represents the STAT-3 inhibitor, STA-21; “Niclosamide” represents the niclosamide in 0.25% DMSO; and “Collagen” represents the stimulant, collagen.

pSYK and PLCγ2 = test: western blot of proteins in the signal transduction pathway of platelet aggregation; type: cell-based; conditions: FIG. 3; 2 μM niclosamide pretreatment, 2.5 μM collagen
Method: FIG. 3 is a western blot image showing proteins in the signal transduction pathway of platelet aggregation, in accordance with at least one embodiment of the present invention. In FIG. 3, pSYK and PLCγ2 in the signal transduction pathway are suppressed in the washed platelet sample received 2 μM niclosamide, even that is treated with 2.5 μM collagen to induce platelet aggregation. In contrast, the pSYK and PLCγ2 in the washed platelet sample received a solvent control (0.25% DMSO) pretreatment are successfully activated after the 2.5 μM collagen treatment.

[2] = tested on: washed platelet samples, platelet aggregation induced by podoplanin; test: platelet aggregation test, washed platelets stimulated with podoplanin; type: cell-based; conditions: FIG. 6; niclosamide 0.5 μM, 1 μM or 2 μM vs solvent control; 0.4 μM podoplanin; read 20 min after podoplanin
Method: FIG. 6 is a bar chart representing the quantitative results of a platelet aggregation test, in accordance with at least one embodiment of the present invention. All procedures in FIG. 6 are the same as the procedures in FIG. 2, except that the collagen used to stimulate platelet aggregation in FIG. 2 is substituted by podoplanin in FIG. 6. In this embodiment, four washed platelet samples from the same source were treated with the same volume of niclosamide (0.5 μM, 1 μM, and 2 μM) or a solvent control respectively. Five minutes, each washed platelet sample was treated with 0.4 μM podoplanin to induce platelet aggregation. The results were detected twenty minutes after the administration of podoplanin. In FIG. 6, the Y-axis represents the percentage of platelet aggregation, in which the transmittance of platelet-poor plasma is used as 100%.

mice [3] = test: ferric chloride occlusive thrombosis of mesenteric arteries; type: in vivo; conditions: FIG. 11; mice 8-10 weeks; 20 mg/kg injected into the abdomen; 7.5% FeCl3 on mesenteric arteries for 2 min; DMSO control 5 minutes
Method: FIG. 11 is diagram illustrating the occlusion time, in accordance with at least one embodiment of the present invention. Mice at 8-10 weeks of age were used in FIG. 11. About 20 nM 3,3′-Dihexyloxacarbocyanine iodide (DioC6), a fluorescent dye used for the staining of platelets, was injected into the orbital vein after 20 mg/kg niclosamide or 5% DMSO was injected into the abdomen. An hour later, isoflurane was provided based on the body weight to anesthetize the mice. Followed the standard procedure for studying occlusive thrombosis, Whatman #1 filter papers soaked with 7.5% ferric chloride (FeCl3) were attached to the mesenteric arteries for two minutes. The mesenteric arteries were then immersed in isotonic saline and placed under a fluorescence microscope (Macrofluo, objective 5.0/0.5 NA, Leica Micro-systems) to record the occlusion time and cessation of blood flow.

[4] = Int J Risk Saf Med 20 (2008) 113-122; cited from earlier work
[5] = tested on: washed platelet sample, clot formation induced by collagen; test: optical microscope images of platelet aggregation test; type: cell-based; conditions: FIG. 4C; 2 μM niclosamide and 2.5 μM collagen
Method: FIGS. 4A-4C are optical microscope images of a platelet aggregation test, in accordance with at least one embodiment of the present invention. The platelet aggregation test was performed in accordance with the standard procedure on three washed platelet samples from the same source at the same time. […] In FIG. 4C, the washed platelet sample 10 received 2 μM niclosamide and 2.5 μM collagen; In FIG. 4B, the washed platelet sample 10 received 2.5 μM collagen and 0.25% DMSO with the same volume of the niclosamide in FIG. 4C. Note that 0.25% DMSO is the solvent of the niclosamide in FIG. 4C. […] In FIG. 4B, clots 20 formed as a result of the treatment of collagen and DMSO.

mice [6] = test: tail bleeding assay; type: in vivo; conditions: FIG. 10; mice 8-10 weeks; 20 mg/kg injected into the abdomen, 1 h before; distal 3-mm tail segment amputated; DMSO control 5 minutes
Method: FIG. 10 is diagram illustrating the bleeding time results, in accordance with at least one embodiment of the present invention. Mice at 8-10 weeks of age were used in FIG. 10. Isoflurane was provided based on the body weight to anesthetize the mice one hour after the 20 mg/kg niclosamide or 5% DMSO was injected into the abdomen. Followed the standard procedure of tail bleeding assay, the distal 3-mm segment of the tail was amputated with scalpel after the anesthetization. The tails were than immersed in isotonic saline at 37° C. to observe the bleeding time. […] However, the bleeding time for mice treated with niclosamide was extended to around 15 minutes.

Row | IC50 relative to STA-21 ([1]; FIGS. 8 and 9, collagen-induced platelet aggregation) | SMILES | collagen-induced platelet aggregation ([1]; pretreated with 1.25 μM STA-21, 2 μM collagen) | aggregation percentage ([1]; 1.25 μM STA-21 and 2 μM collagen (DMSO control exceeds 60%)) | platelet aggregation induced by collagen (transmittance over time) ([1]; FIG. 1, niclosamide 0.5 μM, 1 μM, 2 μM given 5 min before collagen 2 μM) | percentage of platelet aggregation ([1]; FIG. 2, niclosamide 0.5 μM, 1 μM or 2 μM vs solvent control, 2 μM collagen, read 20 min after collagen, p<0.01) | collagen-induced platelet aggregation ([1]; pretreated with 0.25 μM niclosamide, 2 μM collagen) | aggregation percentage ([1]; 0.25 μM niclosamide and 2 μM collagen (DMSO control exceeds 60%)) | pSYK and PLCγ2 in the signal transduction pathway (pSYK and PLCγ2) | percentage of platelet aggregation [2] | occlusion time (mice [3]) | safety profile under current conditions of use [4] | platelet aggregation / clots under 20× optical microscope [5] | bleeding time (mice [6])
1 | – | C[C@@H]1CC(=O)c2c(ccc3c2C(=O)c2cccc(O)c2C3=O)C1 [STA-21, ochromycinone] | suppressed | less than 40% | – | – | – | – | – | – | – | – | – | –
2 | lower IC50 compared to STA-21 | O=C(Nc1ccc([N+](=O)[O-])cc1Cl)c1cc(Cl)ccc1O [niclosamide, 5-chloro-N-(2-chloro-4-nitrophenyl)-2-hydroxybenzamide] | – | – | suppresses the platelet aggregation induced by collagen in a dose-dependent manner | significantly reduced | suppressed | less than 30% | suppressed | significantly reduced | around 25 minutes | there is no information to suggest an unfavorable safety profile of the drug under current conditions of use | No platelet aggregation is observed | around 15 minutes
